Laboratory results published in PubChem BioAssay AID1963873 (Molecular Pharmacology Branch, DTP, NCI, 2024).

System: 276233-004-R-J1-PDC KRAS spheroids with HUVEC/MSC, viability
Assay: Anticancer human tumor 276233-004-R-J1-PDC patient-derived colon adenocarcinoma cell line growth inhibition [KRAS2]
Conditions: for IC50: curve of first compound; for viability, T/C: stronger effect = lower value
Source text: Multicellular complex tumor spheroid response to RAS pathway inhibitors in combination with a targeted agents in patient-derived cell lines with oncogenic KRAS variants from multiple cancer types
A high-throughput screen of multi-cell type tumor spheroids was designed to identify active combinations of targeted small molecules and KRAS pathway inhibitors. Complex spheroids include a stromal component modeled by human endothelial cells (HUVEC) and fibroblasts modeled by human mesenchymal stem cells (MSCs). The concentration ranges selected for each drug and investigational agent were based upon clinically achievable concentrations if the clinical Cmax of the agent was known.
Compounds. The drugs and investigational agents: BI-3406 (NSC825286), BAY-293 (NSC824723), batoprotafib (TNO155; NSC825523), sotorasib (AMG 510; NSC818433), MRTX1257 (NSC819558), elimusertib (BAY 1895344; NSC800525), molibresib (GSK525762; NSC774829), temuterkib (LY3214996; NSC803410), venetoclax (NSC766270), alisertib (NSC759677), olaparib (NSC753686), talazoparib (NSC767125), erdafitinib (NSC781556), ipatasertib (NSC767898), cabozantinib (NSC761068), nintedanib (NSC756659), abemaciclib (NSC768073), docetaxel (NSC628503), trametinib (NSC758246), and sapanisertib (NSC764658) were obtained from the National Cancer Institute (NCI) Developmental Therapeutics Program Chemical Repository. The FDA-approved anticancer drug set is available from the Developmental Therapeutics Program. […] The stock solutions were prepared in dimethyl sulfoxide (DMSO, Sigma-Aldrich, St. Louis, MO, cat. D2650) at 800-fold the tested concentration and stored at -70 degrees C prior to their use. All drugs and investigational agents were tested over a range starting from a high concentration at or near the clinical Cmax and decreasing in half-log increments. If the clinical Cmax for an agent had not been determined, the highest concentration tested was 10 microM.
Cell Culture. All cells were maintained in an incubator at 37 degrees C and 5% CO2 with 95% humidity. The PDC lines were cultured according to standard operating procedures established by the NCI PDMR (https://pdmr.cancer.gov/sops/default.htm). Briefly, all PDCs were thawed and cultured in Matrigel-coated flasks prepared with a working solution of 1X Ham's F-12 nutrient mix, without supplementation (Invitrogen, Waltham, MA, cat. 11765054), 100 U/mL penicillin-streptomycin (Invitrogen, cat. 15140122), and 2.5% Matrigel (Corning Inc., Corning, NY, cat. 354248) for the first three passages. All PDCs were cultured in complete DMEM/F-12 media containing advanced DMEM/F-12 (Invitrogen, cat. 12634028), 4.9% defined fetal bovine serum, heat inactivated (HyClone Laboratories Inc., Logan, UT, cat. SH30070.03HI), 389 ng/mL hydrocortisone (Sigma-Aldrich, cat. H4001), 9.7 ng/mL human EGF recombinant protein (Invitrogen, cat. PHG0313), 23.4 microg/mL adenine (Sigma-Aldrich, cat. A2786), 97.3 U/mL penicillin-streptomycin (Invitrogen, cat. 15140122), 1.9 mM L-glutamine (Invitrogen, cat. 25030081), and 9.7 microM Y-27632 dihydrochloride (Tocris Bioscience, Bristol, United Kingdom, cat. 1254). The PDCs were cultured in complete DMEM/F12 media without 9.7 microM Y-27632 dihydrochloride for at least two passages prior to the screen. The established cell line HOP-62 was cultured in RPMI 1640 medium, HEPES (Invitrogen, cat. 22400105) with 10% defined fetal bovine serum (HyClone Laboratories Inc., cat. SH30070.03) and 2 mM L-glutamine (Invitrogen, cat. 25030081). The pooled donor HUVEC were cultured in endothelial cell growth medium 2 (PromoCell, Heidelberg, Germany, cat. C-22011) and the hMSC were cultured in mesenchymal stem cell growth medium 2 (PromoCell, cat. C-28009). For all experiments, HUVEC and hMSC were used at passages </=5, while the malignant cell lines were used at passages </=15. […]

[1] = second compound 0.1 µM, first compound 0.0316 µM
[2] = second compound 0.1 µM, first compound 0.1 µM
[3] = second compound 0.1 µM, first compound 0.316 µM
[4] = second compound 0.1 µM, first compound 1 µM
[5] = second compound 0.1 µM, first compound 3.16 µM
[6] = second compound 0.1 µM, first compound 10 µM
[7] = second compound 0.316 µM, first compound 0.0316 µM
[8] = second compound 0.316 µM, first compound 0.1 µM
[9] = second compound 0.316 µM, first compound 0.316 µM
[10] = second compound 0.316 µM, first compound 1 µM
[11] = second compound 0.316 µM, first compound 3.16 µM
[12] = second compound 0.316 µM, first compound 10 µM
[13] = second compound 1 µM, first compound 0.0316 µM
[14] = second compound 1 µM, first compound 0.1 µM
[15] = second compound 1 µM, first compound 0.316 µM
[16] = second compound 1 µM, first compound 1 µM
[17] = second compound 1 µM, first compound 3.16 µM
[18] = second compound 1 µM, first compound 10 µM
[19] = second compound 3.16 µM, first compound 0.0316 µM
[20] = second compound 3.16 µM, first compound 0.1 µM
[21] = second compound 3.16 µM, first compound 0.316 µM
[22] = second compound 3.16 µM, first compound 1 µM
[23] = second compound 3.16 µM, first compound 3.16 µM
[24] = second compound 3.16 µM, first compound 10 µM
[25] = second compound 10 µM, first compound 0.0316 µM
[26] = second compound 10 µM, first compound 0.1 µM
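Note: cells exposed to agents for seven days before viability read.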
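Throughout, for viability, T/C: 100% = DMSO vehicle control wells and lower values mean fewer viable cells.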

Molecule `Cn1nccc1Nc1nccc(-c2cc3c(s2)C(C)(C)N(CCN2CCOCC2)C3=O)n1` + CC1OCC2(CCN(c3cnc(Sc4ccnc(N)c4Cl)c(N)n3)CC2)C1N has an IC50 (second compound 0.1 µM) of 2310 nM, an IC50 (second compound 0.316 µM) of 830 nM and an IC50 (second compound 1 µM) of 476 nM. It also gave an IC50 (second compound 3.16 µM) of 320 nM, an IC50 (second compound 10 µM) of under 31.6 nM and a viability, T/C [1] of 86.9%. The viability, T/C [2] was 82.3%, the viability, T/C [3] was 76.8% and the viability, T/C [4] was 70.3%. It also gave a viability, T/C [5] of 37.7%, a viability, T/C [6] of 47% and a viability, T/C [7] of 79.6%. The viability, T/C [8] was 76.5%, the viability, T/C [9] was 65.5% and the viability, T/C [10] was 47.2%. The viability, T/C [11] was 33.1%, the viability, T/C [12] was 28.8% and the viability, T/C [13] was 78.5%. It also gave a viability, T/C [14] of 73.2%, a viability, T/C [15] of 56.2% and a viability, T/C [16] of 38%. The viability, T/C [17] was 26%, the viability, T/C [18] was 22.2% and the viability, T/C [19] was 60.7%. It also gave a viability, T/C [20] of 62.3%, a viability, T/C [21] of 49.4% and a viability, T/C [22] of 30.3%. The viability, T/C [23] was 19.7%, the viability, T/C [24] was 16.4% and the viability, T/C [25] was 48.4%. It also gave a viability, T/C [26] of 38.2%, a viability, T/C (second compound 10 µM, first compound 0.316 µM) of 32.1% and a viability, T/C (second compound 10 µM, first compound 1 µM) of 23.5%. It also gave a viability, T/C (second compound 10 µM, first compound 3.16 µM) of 19% and a viability, T/C (second compound 10 µM, first compound 10 µM) of 16.9%.

Work on `O=C(c1cc(Cc2n[nH]c(=O)c3ccccc23)ccc1F)N1CCN(C(=O)C2CC2)CC1` + C=CC(=O)N1CCN(c2nc(OCC3CCCN3C)nc3c2CCN(c2cccc4cccc(C)c24)C3)CC1CC#N yielded an IC50 (second compound 0.0316 µM) of over 10000 nM, an IC50 (second compound 0.1 µM) of over 10000 nM and an IC50 (second compound 0.316 µM) of over 10000 nM. The IC50 (second compound 1 µM) was over 10000 nM, the IC50 (second compound 3.16 µM) was under 31.6 nM and the viability, T/C (second compound 0.0316 µM, first compound 0.0316 µM) was 114%. For the same molecule, the viability, T/C (second compound 0.0316 µM, first compound 0.1 µM) was 109%, the viability, T/C (second compound 0.0316 µM, first compound 0.316 µM) was 101% and the viability, T/C (second compound 0.0316 µM, first compound 1 µM) was 93.9%. For the same molecule, the viability, T/C (second compound 0.0316 µM, first compound 3.16 µM) was 91.2%, the viability, T/C (second compound 0.0316 µM, first compound 10 µM) was 82.5% and the viability, T/C [1] was 98.1%. The viability, T/C [2] was 109%, the viability, T/C [3] was 100% and the viability, T/C [4] was 87%. The viability, T/C [5] was 87.1%, the viability, T/C [6] was 83.1% and the viability, T/C [7] was 110%. It also gave a viability, T/C [8] of 94.8%, a viability, T/C [9] of 93.4% and a viability, T/C [10] of 68.7%. It also gave a viability, T/C [11] of 83.4%, a viability, T/C [12] of 76.3% and a viability, T/C [13] of 81.5%. It also gave a viability, T/C [14] of 89.8%, a viability, T/C [15] of 110% and a viability, T/C [16] of 87.6%. It also gave a viability, T/C [17] of 82.8%, a viability, T/C [18] of 85% and a viability, T/C [19] of 55.4%. It also gave a viability, T/C [20] of 37.9%, a viability, T/C [21] of 57.2% and a viability, T/C [22] of 43.9%. It also gave a viability, T/C [23] of 44.9% and a viability, T/C [24] of 37.1%.

In the case of `Cn1ncnc1[C@H]1c2n[nH]c(=O)c3cc(F)cc(c23)N[C@@H]1c1ccc(F)cc1` + CNCc1ccccc1-c1csc(C(C)Nc2nc(C)nc3cc(OC)c(OC)cc23)c1, the IC50 (second compound 0.1 µM) is reported as over 100 nM, the IC50 (second compound 0.316 µM) is reported as over 100 nM and the IC50 (second compound 1 µM) is reported as over 100 nM. For the same molecule, the IC50 (second compound 3.16 µM) was under 0.316 nM, the IC50 (second compound 10 µM) was under 0.316 nM and the viability, T/C (second compound 0.1 µM, first compound 0.000316 µM) was 113%. The viability, T/C (second compound 0.1 µM, first compound 0.001 µM) was 115%, the viability, T/C (second compound 0.1 µM, first compound 0.00316 µM) was 98.2% and the viability, T/C (second compound 0.1 µM, first compound 0.01 µM) was 107%. It also gave a viability, T/C [1] of 87.6%, a viability, T/C [2] of 120% and a viability, T/C (second compound 0.316 µM, first compound 0.000316 µM) of 96.1%. It also gave a viability, T/C (second compound 0.316 µM, first compound 0.001 µM) of 119%, a viability, T/C (second compound 0.316 µM, first compound 0.00316 µM) of 116% and a viability, T/C (second compound 0.316 µM, first compound 0.01 µM) of 124%. It also gave a viability, T/C [7] of 83.2%, a viability, T/C [8] of 98.5% and a viability, T/C (second compound 1 µM, first compound 0.000316 µM) of 56.7%. For the same molecule, the viability, T/C (second compound 1 µM, first compound 0.001 µM) was 69.5%, the viability, T/C (second compound 1 µM, first compound 0.00316 µM) was 75.1% and the viability, T/C (second compound 1 µM, first compound 0.01 µM) was 68.2%. The viability, T/C [13] was 50.2%, the viability, T/C [14] was 78% and the viability, T/C (second compound 3.16 µM, first compound 0.000316 µM) was 9.27%. For the same molecule, the viability, T/C (second compound 3.16 µM, first compound 0.001 µM) was 0.64%, the viability, T/C (second compound 3.16 µM, first compound 0.00316 µM) was 0.7% and the viability, T/C (second compound 3.16 µM, first compound 0.01 µM) was 0.62%. The viability, T/C [19] was 0.53%, the viability, T/C [20] was 0.74% and the viability, T/C (second compound 10 µM, first compound 0.000316 µM) was 0.22%. The viability, T/C (second compound 10 µM, first compound 0.001 µM) was 0.22%, the viability, T/C (second compound 10 µM, first compound 0.00316 µM) was 0.22% and the viability, T/C (second compound 10 µM, first compound 0.01 µM) was 0.2%. For the same molecule, the viability, T/C [25] was 0.18% and the viability, T/C [26] was 2.9%.
